We go through two compounds from PMC10815831, “Comparison of Nuclear Medicine Therapeutics Targeting PSMA among Alpha-Emitting Nuclides” (International Journal of Molecular Sciences, 2024).

Assay [1] concerns the target T1, prostate specific membrane antigen (PSMA) (Homo sapiens, UniProt Q04609).
T1 construct: gene FOLH1
Nature of the assay: radioligand uptake in LNCaP (PSMA-high) cells, competition by unlabeled compound; PC3 (PSMA-low) as control. The assay is classed as cell-based.

Assay [2] concerns the target T1, prostate specific membrane antigen (PSMA). Nature of the assay: radioligand uptake in LNCaP (PSMA-high) cells, competition by unlabeled PSMA-617; PC3 (PSMA-low) as control. The assay is classed as cell-based.

T1 sequence (Q04609 whole entry): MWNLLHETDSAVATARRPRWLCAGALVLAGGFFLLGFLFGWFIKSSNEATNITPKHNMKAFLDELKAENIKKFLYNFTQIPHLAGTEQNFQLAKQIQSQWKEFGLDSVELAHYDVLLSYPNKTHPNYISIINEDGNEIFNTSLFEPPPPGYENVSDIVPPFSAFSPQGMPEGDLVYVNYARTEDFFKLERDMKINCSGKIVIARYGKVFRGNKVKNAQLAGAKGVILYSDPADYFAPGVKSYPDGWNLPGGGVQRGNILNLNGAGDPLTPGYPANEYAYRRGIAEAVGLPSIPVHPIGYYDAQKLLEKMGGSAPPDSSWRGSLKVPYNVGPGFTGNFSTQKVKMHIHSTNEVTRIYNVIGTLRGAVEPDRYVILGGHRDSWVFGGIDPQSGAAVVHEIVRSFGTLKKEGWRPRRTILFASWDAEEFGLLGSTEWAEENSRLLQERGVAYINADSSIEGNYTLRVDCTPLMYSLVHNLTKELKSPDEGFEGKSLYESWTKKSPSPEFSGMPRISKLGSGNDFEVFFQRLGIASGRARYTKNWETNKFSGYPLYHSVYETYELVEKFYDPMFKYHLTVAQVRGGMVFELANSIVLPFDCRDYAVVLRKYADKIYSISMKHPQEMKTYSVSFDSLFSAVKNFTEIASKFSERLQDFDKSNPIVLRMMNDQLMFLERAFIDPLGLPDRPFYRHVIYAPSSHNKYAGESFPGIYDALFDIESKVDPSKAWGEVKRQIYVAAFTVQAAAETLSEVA

As usually defined, the IC50 is the concentration that inhibits the measured activity by half. A higher IC50 goes with lower potency. `O=C(O)CC[C@H](NC(=O)N[C@@H](CCCCNC(=O)[C@@H](Cc1ccc2ccccc2c1)NC(=O)c1ccc(CNC(=O)[C@@H](CCC(=O)O)NC(=O)[C@@H](CCC(=O)O)NC(=O)Cc2ccc([211At])cc2)cc1)C(=O)O)C(=O)O` [211At-PSMA-5]: the IC50 in assay [1] was 0.32 nM. That is a sub-nanomolar value.
Compound `O=C([O-])CN1CCN(CC(=O)[O-])CCN(CC(=O)NCC2CCC(C(=O)NC(Cc3ccc4ccccc4c3)C(=O)NCCCC[C@H](NC(=O)N[C@@H](CCC(=O)O)C(=O)O)C(=O)O)CC2)CCN(CC(=O)[O-])CC1.[225Ac+3]` (some centres unmarked) [225Ac-PSMA-617] yielded an IC50 in assay [2] of 2.64 nM.
